The values below come from patent US20250082589A1, “PHENYLETHYLIDENEHYDRAZINE DIMERS AND METHODS OF USING SAME” (NEURAWELL THERAPEUTICS, priority 2021, published 2025).

Where two headings read alike, the source gives them in different places.

The target of one data set is T1, MAO-B (Homo sapiens, UniProt P27338).
T1 sequence (P27338 1-520): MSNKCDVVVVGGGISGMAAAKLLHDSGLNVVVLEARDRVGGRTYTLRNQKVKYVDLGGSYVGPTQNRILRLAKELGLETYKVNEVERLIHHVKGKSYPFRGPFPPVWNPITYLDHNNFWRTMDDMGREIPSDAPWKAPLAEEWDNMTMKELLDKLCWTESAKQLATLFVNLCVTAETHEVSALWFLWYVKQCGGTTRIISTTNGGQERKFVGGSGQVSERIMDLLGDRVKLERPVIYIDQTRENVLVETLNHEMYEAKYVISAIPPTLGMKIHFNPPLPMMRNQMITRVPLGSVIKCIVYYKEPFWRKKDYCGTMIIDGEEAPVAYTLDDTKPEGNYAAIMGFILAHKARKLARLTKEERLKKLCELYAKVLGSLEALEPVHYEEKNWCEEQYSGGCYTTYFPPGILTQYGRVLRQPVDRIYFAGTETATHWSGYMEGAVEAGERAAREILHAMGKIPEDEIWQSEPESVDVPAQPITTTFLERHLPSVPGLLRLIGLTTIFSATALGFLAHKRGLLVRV
The settings on record: cited from earlier work.

For data set [1] the following is noted: PEH 1830-003B, NMR.
The nature of data set [2]: PEH stability tests by LCMS (batch 1830-023). The settings on record: stored at −80° C. The data set is classed as physicochemical. On the procedure:
See also FIG. 27, which illustrates the results from the stability tests of PEH. […] Compounds were separated on a Kinetix® 2.6 μm XB—C18 (4.6×50 mm), 110A, column no. 00B-4496-EO column using gradient elution with a column temperature of 25° C. at a flow of 1.0 mL/min. The elution scheme shown in Table 15 was used for chromatographic separation. Mobile phase C was 0.05% ammonium hydroxide in water (28.0-30.0% NH3 basis) and Mobile phase D was acetonitrile. The syringe washing solution was 20% MeOH. The MS conditions were a mass range of 100-1000 m/z and scan speed of 12 000 amu/sec.

Data set [3] can be described thus: 1H NMR stability of PEH sample 1830-011 over time and in different deuterated solvents. The data set is classed as physicochemical. The procedure: ^1H NMR was employed to probe the stability of PEH sample 1830-011 both in terms of time after preparation and in different deuterated solvents. […] In Py-d6, about 10% of PEH was transformed to the azine. Additionally, a new sample from the obtained oil in sample 1830-011 in which the oil was prepared after 3 days storage in −20° C. under argon was prepared and measured directly in CDCl3. After 3 days, the contamination of PEH with azine was equal to 18% (the ratio of PEH:Azine was 82:18).

Data set [4] can be described thus: pH stability studies at pH 9.2 and pH 7.4. In kind it is physicochemical. The text has this: Batch 1830-013. Although UPLC confirmed the presence of PEH and the azine (FIG. 6A), no signals due to either species were detected in the NMR in CDCl3 (FIG. 6B).
The target of the next data set is T2, MAO-A (Homo sapiens, UniProt P21397).
T2 sequence (P21397 1-527): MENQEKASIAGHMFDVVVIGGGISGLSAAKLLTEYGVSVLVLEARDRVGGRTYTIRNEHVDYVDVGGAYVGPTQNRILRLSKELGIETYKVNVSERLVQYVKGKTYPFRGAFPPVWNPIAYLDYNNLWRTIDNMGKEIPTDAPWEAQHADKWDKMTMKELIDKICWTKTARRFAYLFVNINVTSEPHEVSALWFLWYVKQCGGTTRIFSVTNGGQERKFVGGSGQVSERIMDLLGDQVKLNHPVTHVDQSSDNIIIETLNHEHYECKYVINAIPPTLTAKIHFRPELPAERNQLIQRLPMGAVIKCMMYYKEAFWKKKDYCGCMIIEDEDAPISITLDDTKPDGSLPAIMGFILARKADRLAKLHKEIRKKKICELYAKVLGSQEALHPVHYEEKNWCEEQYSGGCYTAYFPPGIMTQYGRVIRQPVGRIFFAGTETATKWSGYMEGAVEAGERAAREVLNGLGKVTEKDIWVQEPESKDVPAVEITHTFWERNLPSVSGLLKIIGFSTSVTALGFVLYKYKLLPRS
As to conditions: cited from earlier work.

A short description of data set [5]: LC-MS analysis of first preparative HPLC fraction in solution and after lyophilization. The data set is classed as physicochemical. On the procedure:
See also FIG. 22A-C. […] Peak nos. […] Peak nos.
LCMS Method. The LCMS analysis was performed on a Dionex UHPLC Ultimate 3000 with DAD detector/Thermo Scientific ISQ EC-Mass Spectrometer with a wavelength range of 190-350 nm±4 nm. […] The elution scheme shown in Table 12 was used for chromatographic separation. Mobile phase C was 0.05% ammonium hydroxide in water (28.0-30.0% NH3 basis) and Mobile phase D was acetonitrile. The syringe washing solution was 20% MeOH. The MS conditions were a mass range of 100-1000 m/z and scan speed of 12 000 amu/sec.

Data set [6] is described as follows: Stability under acidic or basic UPLC conditions. In kind it is physicochemical. On the procedure: Batch 1830-001. […] The purity of the sample was 20%.
The peak at R.T.=1.70 min corresponds to the azine according to mass spectrometry (FIG. 13B, bottom panel), and the azine was present at 69% purity.
UPLC Method. The UPLC analysis was performed on a Waters ACQUITY UPLC I-Class PLUS System with a Waters SQ Detector 2 in the wavelength range of 200-400 nm. Compounds were separated on an Acquity UPLC BEH C18 1.7 μm/130 Å (2.1×100 mm) column using gradient elution with a column temperature of 40° C. at a flow of 0.5 mL/min. The elution scheme shown in Table 11 was used for chromatographic separation. Mobile phase A was 0.05% ammonium hydroxide in water (28.0-30.0% NH3 basis) and Mobile phase B was acetonitrile. The syringe washing solution was 50% ACN, 50% water. The MS conditions were a mass range of […] and scan time of 0.15 s.

A short description of data set [7]: 1H NMR stability of azine sample 1830-012 over time and in different deuterated solvents. The settings on record: 1830-012 oil after 3 days storage in −20° C. under argon, new sample measured directly in CDCl3. The data set is classed as physicochemical. The procedure:
^1H NMR was employed to probe the stability of azine sample 1830-012 both in terms of time after preparation and in different deuterated solvents.
Additionally, a new sample from the oil obtained in sample 1830-012, in which the oil was prepared after 3 days storage in −20° C. under argon, was prepared and measured directly in CDCl3.
After 3 days, the contamination of the azine with PEH was equal to 9% (the ratio of PEH:Azine was 9:91). […] Thus, it is theorized that purification cannot be accomplished by column chromatography. […] First, EtOH (2.0 mL) was added to 300 mg of crude product 1830-012 and heated to reflux. During refluxing, ˜1.0 mL of EtOH evaporated. The mixture was then slowly cooled to room temperature and then cooled to 0° C. After 3 days at 0° C., no precipitate was observed. In a second attempt, cold EtOH (3.0 mL) was added to 600 mg of crude product 1830-012 and the suspension was stirred at 0° C. for 15 minutes. The white precipitate was filtered (m=131 mg) and washed with small amounts of cold EtOH (see FIG. 5).

Data set [8] is described as follows: LC-MS analysis of azine yellow precipitate (1830-014) after dissolution and storage. The data set is classed as physicochemical. The procedure:
Crystallization was performed on 3.6 g of the crude azine product for 1830-014 using the second method as described above for 1830-012 (FIG. 9). White (m=0.490 g) and yellow (m=1.473 g) precipitates were obtained. LC-MS analysis was also performed on the azine sample obtained as a yellow precipitate (1830-014), with chromatograms obtained directly after dissolution (FIG. 10A) and 27 hours after dissolution (FIG. 10B). The quantitative results are described in Table 12 and Table 13 below. According to the LC-MS analysis using % relative area corresponding to the appropriate MS peaks, the azine sample obtained as a yellow precipitate was 96.24% azine. 27 hours after dissolution, the sample was 91.77% azine. After one month of storage at −20° C. under Argon, the sample was 91.56% azine (data not shown).
LCMS Method. The LCMS analysis was performed on a Dionex UHPLC Ultimate 3000 with DAD detector/Thermo Scientific ISQ EC-Mass Spectrometer with a wavelength range of 190-350 nm±4 nm. Compounds were separated on a Kinetix® 2.6 μm XB—C18 (4.6×50 mm), 110 A, column no. 00B-4496-EO column using gradient elution with a column temperature of 25° C. at a flow of 1.0 mL/min. The elution scheme shown in Table 12 was used for chromatographic separation. Mobile phase C was 0.05% ammonium hydroxide in water (28.0-30.0% NH3 basis) and Mobile phase D was acetonitrile. The syringe washing solution was 20% MeOH. The MS conditions were a mass range of 100-1000 m/z and scan speed of 12 000 amu/sec.

[9] abbreviates: PEH 1830-011, first fraction after preparative HPLC and lyophilization.

`NN=CCc1ccccc1` [PEH, phenylethylidenehydrazine]: the “inhibition of MAO-B” value on MAO-B is “weak and transient inhibitor”. In addition, the “level of azine impurity during drying” value is listed as 7% in data set [1] (after drying for 15 min) and 22% in data set [1] (after drying for 3 hours). The “Purity of PEH (summarized isomers), stability test” value is 97.36 in [2] (Extract (liq) in chloroform, after 1 day); 97.86 in data set [2] (Extract (liq) in chloroform, after 2 days); 97.82 in data set [2] (Extract (liq) in chloroform, after 3 days); 97.65 in data set [2] (Extract (liq) in chloroform, after 4 days); 96.14 in data set [2] (Extract (liq) in chloroform, after 7 days); 98.49 in data set [2] (Extract (liq) in chloroform, after reaction). The “Purity of PEH (summarized isomers), stability test” value in data set [2] (solid (concentrated material), after 1 day) is 68.46; in data set [2] (solid (concentrated material), after 2 days), 69.82; in [2] (solid (concentrated material), after 3 days) it was 64.26; in data set [2] (solid (concentrated material), after 4 days) it was 66.89; in data set [2] (solid (concentrated material), after 7 days) it was 67.38; in [2] (solid (concentrated material), after reaction), 81.17. In addition, in data set [3] (1830-011 oil after 3 days storage in −20° C. under argon, new sample measured directly in CDCl3), the “contamination of PEH with azine” value is listed as 18%. The “PEH transformed to the azine” value in data set [3] (PEH sample 1830-011 in Py-d6) was “about 10%”. Moreover, the pH stability result in [4] (pH 7.4) is “the azine and the aldehyde are formed”; in data set [4] (pH 9.2) it was “stable at pH=9.2”. For the same compound, the “inhibition of MAO-A” value at MAO-A was “weak and transient inhibitor”. In [5], the stability during lyophilization entry is reported as “undergoes decomposition during lyophilization”. For the same compound, the “% PEH by LCMS” value in [5] (setting [9]) is listed as 12.70%; in [5] (PEH 1830-011, first fraction after preparative HPLC, solution, before lyophilization), 92.66%. In addition, the “% azine in PEH sample by LCMS” value in [5] (setting [9]) is 85.89%; in data set [5] (PEH 1830-011, first fraction in solution after preparative HPLC) it was 4.14%.
With `C(/Cc1ccccc1)=N\N=C\Cc1ccccc1` [azine, (1E,2E)-1,2-bis(2-phenylethylidene)hydrazine], in [6] (acidic conditions), the “stability in acidic conditions (UPLC)” value is on record as “not stable in acidic conditions”. In data set [6] (basic conditions, sample 1830-001), the “stability in basic conditions (UPLC)” value is “stable in basic conditions”. Moreover, in data set [7], the “contamination of the azine with PEH” value was determined as 9%. Moreover, the “% azine by LC-MS relative area” value in data set [8] (yellow precipitate 1830-014, 27 hours after dissolution) is 91.77%; in [8] (yellow precipitate 1830-014, after one month of storage at −20° C. under Argon) it was 91.56%; in data set [8] (yellow precipitate 1830-014, directly after dissolution), 96.24%; in [5] (azine 1830-015, first fraction after lyophilization) it was 99.93%; in data set [5] (azine 1830-015, first fraction after preparative HPLC, in solution), 99.61%. Also, the pH stability result is on record as “undergoes rapid hydrolysis to the aldehyde” in data set [4] (pH 7.4) and “stable at pH 9.2” in data set [4] (pH 9.2). Moreover, the stability during lyophilization result in data set [5] (after preparative HPLC) is reported as “remained stable after lyophilization”.
